Where a SMILES comes first, the peptide text is derived from it.
How the values were obtained:
14-3-3σ [1] = target: T1, 14-3-3σ (Homo sapiens, UniProt P31947); assay: Ac-peptide competition assay against FITC-peptide (peptide affinity)
T1 sequence (P31947 1-231 limits assumed): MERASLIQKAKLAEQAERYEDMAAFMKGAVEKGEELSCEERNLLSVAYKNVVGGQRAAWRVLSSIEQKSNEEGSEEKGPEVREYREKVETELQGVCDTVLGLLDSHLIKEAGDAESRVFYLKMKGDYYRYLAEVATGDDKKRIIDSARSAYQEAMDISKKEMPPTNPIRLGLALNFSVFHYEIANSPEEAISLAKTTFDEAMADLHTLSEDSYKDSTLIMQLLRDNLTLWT

14-3-3σ [2] = target: T1, 14-3-3σ; assay: 14-3-3σ titration to FITC-labeled phosphopeptide (peptide affinity)

Ki (14-3-3σ [1]) [µM]	Kd (14-3-3σ [2]) [µM]	SMILES
3.66	5.06	CC(=O)N1CCC[C@H]1C(=O)N[C@@H](CCCNC(=N)N)C(=O)N[C@@H](CCCNC(=N)N)C(=O)N[C@@H](CCCNC(=N)N)C(=O)N1CCC[C@H]1C(=O)N[C@@H](CCC(=O)O)C(=O)N[C@@H](COP(=O)(O)O)C(=O)N[C@@H](C)C(=O)N1CCC[C@H]1C(=O)N[C@@H](C)C(=O)N[C@@H](CCC(=O)O)C(=O)N[C@@H](CO)C(=O)N[C@@H](CO)C(N)=O [SOS1, Ac-PRRRPE{pS}APAESS-CONH2] (HELM PEPTIDE1{[ac].P.R.R.R.P.E.[O=C([C@H](COP(=O)(O)O)N[*:1])[*:2]].A.P.A.E.S.S.[am]}$$$$V2.0)
9.5	4.64	CC(=O)N[C@@H](CCCNC(=N)N)C(=O)N[C@@H](CCC(N)=O)C(=O)N[C@@H](CCCNC(=N)N)C(=O)N[C@@H](CO)C(=O)N[C@H](C(=O)N[C@@H](COP(=O)(O)O)C(=O)N[C@H](C(=O)N1CCC[C@H]1C(=O)N[C@@H](CC(N)=O)C(=O)N[C@H](C(=O)N[C@@H](Cc1c[nH]cn1)C(N)=O)C(C)C)[C@@H](C)O)[C@@H](C)O [C-RAF, Ac-RQRST{pS}TPNVH-CONH2] (HELM PEPTIDE1{[ac].R.Q.R.S.T.[O=C([C@H](COP(=O)(O)O)N[*:1])[*:2]].T.P.N.V.H.[am]}$$$$V2.0)
14.3	3.77	CC[C@H](C)[C@H](NC(=O)[C@H](CC(=O)O)NC(=O)[C@@H]1CCCN1C(=O)[C@H](CO)NC(=O)[C@H](COP(=O)(O)O)NC(=O)[C@H](Cc1ccc(O)cc1)NC(=O)[C@H](CO)NC(=O)[C@H](CCCNC(=N)N)NC(=O)[C@H](CCCCN)NC(=O)[C@H](CC(C)C)NC(=O)[C@H](CCCCN)NC(C)=O)C(=O)N[C@H](C(=O)N[C@@H](CCC(N)=O)C(N)=O)[C@@H](C)O [USP8, Ac-KLKRSY{pS}SPDITQ-CONH2] (HELM PEPTIDE1{[ac].K.L.K.R.S.Y.[O=C([C@H](COP(=O)(O)O)N[*:1])[*:2]].S.P.D.I.T.Q.[am]}$$$$V2.0)

SMILES	Ki (14-3-3σ [1]) [µM]	Kd (14-3-3σ [2]) [µM]
CC(=O)N[C@@H](CCCNC(=N)N)C(=O)N1CCC[C@H]1C(=O)N[C@@H](CCCNC(=N)N)C(=O)N[C@@H](CO)C(=O)N[C@@H](CS)C(=O)N[C@H](C(=O)N[C@@H](Cc1c[nH]c2ccccc12)C(=O)N1CCC[C@H]1C(=O)N[C@@H](CC(C)C)C(=O)N1CCC[C@H]1C(=O)N[C@@H](CCCNC(=N)N)C(N)=O)[C@@H](C)OP(=O)(O)O [FOXO1, Ac-RPRSC{pT}WPLPR-CONH2] (HELM PEPTIDE1{[ac].R.P.R.S.C.[C[C@@H](OP(=O)(O)O)[C@H](N[*:1])C(=O)[*:2]].W.P.L.P.R.[am]}$$$$V2.0)	0.396	

Source: paper PMC10214524, “A Systematic Approach to the Discovery of Protein–Protein Interaction Stabilizers” (ACS Central Science, 2023)
